Laboratory results reported in patent US20190070140A1, “COMPOSITION COMPRISING PROTECTIN DX AS ACTIVE INGREDIENT FOR PREVENTING OR TREATING HYPERLIPIDEMIA OR FATTY LIVER DISEASE” (Solvit P&F, priority 2017, published 2019).

Assays:
ORP150 [1] = test: Western-blot assay of ORP150 in HepG2 cells; assay type: cell-based, Human; conditions: 2 μm PDX, 24 hours, FIG. 3A
Description: (§1) After collecting HepG2 cells, protein was extracted from the cells with a buffer (PRO-PREF; Intron Biotechnology, Seoul, Korea) at 4° C. for 1 hour. A protein sample (35 μg) was applied to 12% SDS-PAGE, transferred to a nitrocellulose film (Amersham Bioscience, Westborough, Mass., USA), detected with a primary antibody, followed by probing with a secondary antibody and another secondary antibody conjugated with horseradish […] (Santa Cruz Biotechnology). The sample was detected by ECL kit. Under 70% comfluency, 0 to 20 nmol/L […] (si)RNA oligonucleotide to ORP150 purchased from Santa Cruz Biotechnology was transfected to inhibit gene expression. Scramble siRNA was used as a control group. 2 or 4 μg of pCMV3-ORP150 (Sino Biological, Beijing, China) was transiently transfected, leading to over-expression of ORP150. pCMV3 empty-vector was used as a control group. According to instruction of the manufacturer, transfection was executed using lipofectamine 2000 (Invitrogen). The present inventors have executed western-blot assay of ORP150 in HepG2 cells transfected with scramble siRNA or siFOXO1 in the presence of 2 μm of PDX for 24 hours.

IRE-1, eIF2α and CHOP [2] = test: Western-blot assay of phosphorylation and expression of ER stress markers in palmitate-treated HepG2 cells; assay type: cell-based, Human; conditions: for expression of ER stress markers IRE-1, eIF2α and CHOP: FIG. 2A
Description: as §1, with “Human liver cells, that is, HepG2 cells (ATCC, Manassas, Va., USA) were cultured in high-glucose Dulbecco's modified eagle medium (DMEM, Invitrogen, Carlsbad, Calif., USA), which includes 10% fetal bovine serum (FBS, Invitrogen), 100 units/mL of penicillin and 100 μg/ml of streptomycin. The cells were incubated at 37° C. under a condition of 5% CO2. Mycoplasma was not detected in HepG2 cells. PDX (Cayman Chemical, Ann Arbor, Mich., USA) was dissolved in ethanol. Sodium palmitate (Sigma, St. Louis, Mo., USA) was mixed with 2% BSA (fatty acid free level; Sigma) in DMEM. […] In all experiments, the cells were treated with palmitate-BSA and PDX for 24 hours, while 2% BSA-ethanol was used as a control group. After” for “After”, “(Invitrogen).” for “(Invitrogen). The present inventors have executed western-blot assay of ORP150 in HepG2 cells transfected with scramble siRNA or siFOXO1 in the presence of 2 μm of PDX for 24 hours.”

[3] = Body weight, liver weight and epididymal fat content of HFD mice; assay type: in vivo, mouse; conditions: PDX i.p. 1 μg/mice/day for 8 weeks, compared to HFD diet mice
Description: The present study has received the approval of the Institutional Animal Review Committee (Institutional Animal Care and Use Committee in Korea University, Seoul, Korea). The animal experiment was conducted according to the Guide for Care and Use of Laboratory Animals (NH publication, 8th Ed., 2011). A control group and a group of male C57BL/6J(B6) mice at 8 weeks of age were subjected to a normal diet (ND, Brogaarden, Gentofte, Denmark) and a high fat diet (HFD, Research Diets, New Brunswick, N.J., USA) for 8 weeks, respectively. The HFD (high fat diet) group was provided with intra-peritoneal injection of PDX for 8 weeks (1 μg/mice/day). An ethanol injection group was used as a control group. According to the above experimental procedures conducted for 8 weeks, the present inventors measured body weights, daily energy intakes, liver weights and epididymal fat contents, with respect to five mice per group.

ORP150 [4] = test: Western-blot assay of ORP150 expression in livers of HFD mice; assay type: in vivo, mouse; conditions: PDX i.p. 1 μg/mice/day for 8 weeks, FIG. 5D
Description: (§2) The present study has received the approval of the Institutional Animal Review Committee (Institutional Animal Care and Use Committee in Korea University, Seoul, Korea). The animal experiment was conducted according to the Guide for Care and Use of Laboratory Animals (NH publication, 8th Ed., 2011). A control group and a group of male C57BL/6J(B6) mice at 8 weeks of age were subjected to a normal diet (ND, Brogaarden, Gentofte, Denmark) and a high fat diet (HFD, Research Diets, New Brunswick, N.J., USA) for 8 weeks, respectively. The HFD (high fat diet) group was provided with intra-peritoneal injection of PDX for 8 weeks (1 μg/mice/day). An ethanol injection group was used as a control group. […] A protein sample (35 μg) was applied to 12% SDS-PAGE, transferred to a nitrocellulose film (Amersham Bioscience, Westborough, Mass., USA), detected with a primary antibody, followed by probing with a secondary antibody and another secondary antibody conjugated with horseradish […] (Santa Cruz Biotechnology). The sample was detected by ECL kit. The present inventors have assessed PDX effects upon lipid accumulation in a mouse. For this purpose, a liver cut section from a mouse was subjected to histological assay and western-blot assay through H&E staining and Oil-Red-O staining, while TG accumulation was measured using a TG analysis kit.

SREBP1, FAS and SCD1 = test: Western-blot assay of adipogenesis-related genes in livers of HFD mice; assay type: in vivo, mouse; conditions: PDX i.p. 1 μg/mice/day for 8 weeks, vs HFD, FIG. 5B
Description: as §2

influenza virus = conditions: through RNA export system; reported; cited from earlier work
IRE-1, eIF2α and CHOP [5] = test: Western-blot assay of ER stress markers in livers of HFD mice; assay type: in vivo, mouse; conditions: PDX i.p. 1 μg/mice/day for 8 weeks, FIG. 5C
Description: as §2

CC/C=C\C[C@H](O)/C=C/C=C\C=C\[C@@H](O)C/C=C\C/C=C\CCC(=O)O [PDX, 10S,17S-dihydroxy-docosa-4Z,7Z,11E,13Z,15E,19Z-hexaeonic acid]
PDX effects of promoting ORP150 expression (ORP150 [1]; HepG2 cells transfected with FOXO1 siRNA): inhibited | ORP150 expression level (ORP150 [1]; HepG2 cells, scramble siRNA): increased | expression of ER stress markers IRE-1, eIF2α and CHOP (IRE-1, eIF2α and CHOP [2]; palmitate + PDX + siORP150 (ORP150 silencing)): increased again | phosphorylation and expression of ER stress markers IRE-1, eIF2α and CHOP (IRE-1, eIF2α and CHOP [2]; palmitate-induced, 24 hours, FIG. 1C): significantly decreased depending upon a dose of PDX | expression of ER stress markers IRE-1, eIF2α and CHOP (IRE-1, eIF2α and CHOP [2]; scramble siRNA + palmitate + PDX): reduced | body weights ([3]; FIG. 6A): significantly reduced | liver weights ([3]; FIG. 6C): significantly decreased | epididymal fat contents ([3]; FIG. 6D): significantly decreased | ORP150 expression suppressed in the liver by HFD (ORP150 [4]): remarkably recovered | expression of adipogenesis-related genes SREBP1, FAS and SCD1 in the liver (SREBP1, FAS and SCD1): significantly reduced | replication of influenza virus (influenza virus): inhibits | liver ER stress markers IRE-1, eIF2α and CHOP (IRE-1, eIF2α and CHOP [5]): inhibited
